Entries after “also recorded” stand apart in the source; their conditions may differ. Where two headings read alike, the source gives them in different places.
Key:
[1] = In vitro metabolism, liver microsomes; type: in vitro ADME; details: Rat
Method: Compounds were spiked into microsomal matrix prepared in 0.1 M pH 7.4 phosphate buffer containing magnesium chloride (final concentration of 3.3 mM), equilibrated for 5-10 min at 37°C. The reaction was initiated with the addition of freshly prepared solution of NADPH (final 1.3 mM). Control samples without co-factor were included for comparison. Aliquots of the reaction mixtures were taken periodically over 60 min and quenched with acetonitrile containing internal standards (metolazone and diazepam). Quenched samples were maintained on ice for approximately 20-30 min, centrifuged (for 5 min) and the supernatant was analyzed by LC-MS.
In vitro intrinsic clearance (CLint, μL/min/mg or μL/min/10^6 cells) values were calculated from the apparent first order degradation rate constant divided by the microsome concentration or the hepatocyte cell number (10^6 viable cells/mL). In vitro CLint values were then divided by the fraction unbound in the in vitro test system (to give CLint,u) and scaled to in vivo values (mL/min/kg) using published physiological scaling factors ([28]). Blood clearance in each species was then calculated using the well-stirred model of hepatic extraction (equation 2) where Q is the hepatic blood flow and fu,blood is calculated from fu,plasma/B:P: [2] PredictedCLblood=Q x fu,blood x CLint,u/Q+fu,blood x CLint,u […]

In vivo pharmacokinetics = assay: In vivo pharmacokinetics; set-up: species or system male Sprague Dawley rats; details: for Vd: read-out: Plasma Vss
Method: Single dose intravenous (IV) pharmacokinetic (PK) studies in male Sprague Dawley rats and IV and oral PK studies in female BALB/c mice were conducted at Monash University. […] Blood was sampled via a cannula implanted in the carotid artery (also on the day prior to dosing) at pre-determined time points up to 24 h post-dose. Samples were transferred to vials containing heparin as an anticoagulant, gently mixed and centrifuged, and plasma separated for subsequent quantitative analysis using LC-MS. […] A dose of 25 mg/kg prepared in an aqueous suspension vehicle containing 0.5% hydroxypropyl methylcellulose, 0.5% benzyl alcohol and 0.4% polysorbate 80 (0.2 mL per mouse) was also dosed via oral gavage. Mouse blood was sampled via submandibular bleed up to 24 h post-dose (n=2 mice per time point, n=3 samples per mouse) into vials containing heparin and plasma was separated for quantitative analysis as described above.
Additional PK studies were also conducted by WuXi AppTec Co, Ltd (Shanghai, China) according to protocols reviewed and approved by DNDi. […] IV and oral formulations for rats, mice and hamsters were the same as described above. For dogs, the IV dose was administered in saline containing 2% DMSO and 3% Solutol HS-15 and the oral formulation was as described above. Blood was sampled up to 48 h post-dose into vials containing potassium EDTA as an anticoagulant, proteins were precipitated with acetonitrile and plasma was separated and assayed by LC-MS.
Single dose pharmacokinetic parameters (clearance, volume of distribution and half-life) were initially estimated using non-compartmental methods and oral bioavailability was calculated using the ratio of the dose corrected AUC after oral dosing relative to that after IV administration. Nominal doses were used in the calculations unless the measured dose differed by more than 15% from the nominal dose, in which case the measured dose was used. Where a full concentration versus time profile was obtained from a single animal, parameters were estimated for each animal and mean and standard deviations calculated. In the case of mice where sparse sampling was used with multiple animals per time point, the data analysis was conducted using the mean profile.

hERG potassium channel = target: T1, hERG potassium channel (Homo sapiens, UniProt Q12809); assay: hERG channel test (Qpatch / Qube); type: cell-based; details: CHO cells stably expressing hERG potassium channels, Qpatch hERG (Fig. S15)
T1 construct: host or cells: Chinese hamster ovary cells
T1 sequence (Q12809 whole entry): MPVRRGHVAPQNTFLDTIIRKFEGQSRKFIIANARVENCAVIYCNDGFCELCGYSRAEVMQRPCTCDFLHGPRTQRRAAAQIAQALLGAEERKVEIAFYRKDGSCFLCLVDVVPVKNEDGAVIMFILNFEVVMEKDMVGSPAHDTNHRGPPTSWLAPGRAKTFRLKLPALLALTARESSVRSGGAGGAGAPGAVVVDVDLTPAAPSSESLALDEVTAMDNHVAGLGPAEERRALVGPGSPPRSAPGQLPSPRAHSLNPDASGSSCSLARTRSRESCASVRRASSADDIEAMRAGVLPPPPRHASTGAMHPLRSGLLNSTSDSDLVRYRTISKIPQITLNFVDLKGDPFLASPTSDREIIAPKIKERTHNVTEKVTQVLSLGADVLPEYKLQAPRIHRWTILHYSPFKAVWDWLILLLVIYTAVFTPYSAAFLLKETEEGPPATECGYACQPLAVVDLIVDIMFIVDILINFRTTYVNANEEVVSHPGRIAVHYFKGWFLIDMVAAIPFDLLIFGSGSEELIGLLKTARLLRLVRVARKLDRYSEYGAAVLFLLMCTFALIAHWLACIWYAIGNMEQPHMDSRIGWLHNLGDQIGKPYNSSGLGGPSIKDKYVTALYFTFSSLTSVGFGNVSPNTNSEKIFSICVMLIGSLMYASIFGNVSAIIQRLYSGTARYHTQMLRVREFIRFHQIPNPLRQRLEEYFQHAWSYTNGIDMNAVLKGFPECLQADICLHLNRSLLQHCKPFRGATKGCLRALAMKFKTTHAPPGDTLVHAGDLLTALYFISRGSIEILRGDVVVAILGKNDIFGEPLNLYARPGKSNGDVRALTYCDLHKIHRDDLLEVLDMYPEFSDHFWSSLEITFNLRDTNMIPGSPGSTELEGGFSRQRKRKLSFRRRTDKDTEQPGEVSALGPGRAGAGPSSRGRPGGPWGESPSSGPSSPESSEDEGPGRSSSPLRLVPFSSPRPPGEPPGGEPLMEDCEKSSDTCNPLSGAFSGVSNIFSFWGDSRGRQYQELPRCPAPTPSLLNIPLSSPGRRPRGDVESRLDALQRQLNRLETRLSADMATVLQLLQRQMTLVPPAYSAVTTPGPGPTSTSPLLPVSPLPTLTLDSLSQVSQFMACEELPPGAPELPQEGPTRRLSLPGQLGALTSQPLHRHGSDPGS
Method: Two concentrations (1 and 30 μM, two replicates each) were tested at room temperature.

[2] = system: hiPSc-CMs (cardiomyocytes); assay: hiPSc-CM multielectrode (MEA) assay; type: cell-based, human; details: 0.37, 1.11, 3.33, 10 and 30 µM
Method: The hIPSc-CM assay was conducted to identify DNDI-6174-induced changes in field potential duration (FPD ≈ QT interval), total spike amplitude (TSA ≈ QRS interval) and beat rate. Inducible pluripotent stem cell-derived cardiomyocytes (hiPSc-CMs, iCell2, Cellular Dynamics) were maintained in culture medium (50,000 cells/well) for 7 days. Full media changes were done every 48 h. Following baseline recording, and right after the 1 hour compound treatment time (n=8/concentration, 5 concentrations), 1 min recording of activity was taken daily starting on Day 3 through Day 7 using the Maestro multi-electrode Array System (Axion BioSystems; 48 or 96-well plate). 3μM Quinidine was used as a control for hERG and hNaV1.5 block.

[3] = In vitro cytotoxicity assay; type: cell-based; details: human, THP1 human monocytic leukaemia cells
[4] = system: Salmonella typhimurium strains TA1535, TA1537, TA98 and TA100, and Escherichia coli WP2 uvrA (pKM101); assay: Ames test; type: cell-based; details: absence or presence of rat liver S9
Method: Salmonella typhimurium strains TA1535, TA1537, TA98 and TA100, and Escherichia coli WP2 uvrA (pKM101) were employed. Positive controls were respectively sodium azide (2 μg/plate), 9-amino acridine (50 μg/plate), 2-nitrofluorene (1 μg/plate), sodium azide (2 μg/plate) and 4-nitroquinoline-1-oxide (2 μg/plate). The negative control was DMSO.

CYP2C9 = target: T2, CYP2C9 (Homo sapiens, UniProt P11712); assay: Cytochrome P450 inhibition, human liver microsomes; type: in vitro ADME
T2 construct: incubation of isoform-specific substrates with human liver microsomes; from tissue; host or cells: human liver microsomes
T2 sequence (P11712 whole entry, canonical isoform): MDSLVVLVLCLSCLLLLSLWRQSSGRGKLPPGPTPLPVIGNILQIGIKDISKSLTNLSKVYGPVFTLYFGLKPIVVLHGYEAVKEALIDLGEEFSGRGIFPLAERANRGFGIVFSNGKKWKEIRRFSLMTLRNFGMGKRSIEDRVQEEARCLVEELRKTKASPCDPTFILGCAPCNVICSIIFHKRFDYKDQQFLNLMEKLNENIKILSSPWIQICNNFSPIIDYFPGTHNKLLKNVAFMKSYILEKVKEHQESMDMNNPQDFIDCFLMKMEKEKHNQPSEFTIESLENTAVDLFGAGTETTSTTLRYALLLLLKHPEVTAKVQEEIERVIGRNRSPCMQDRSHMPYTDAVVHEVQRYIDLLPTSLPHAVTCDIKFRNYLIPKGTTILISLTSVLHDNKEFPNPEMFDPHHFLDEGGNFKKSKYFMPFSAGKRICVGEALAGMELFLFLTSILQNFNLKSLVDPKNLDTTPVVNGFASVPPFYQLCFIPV
Description: The formation of known metabolites mediated by a specific CYP isoform was monitored. CYP isoform-specific pathways (and positive control inhibitors) included CYP1A2: phenacetin O-deethylation (furafylline), CYP2B6: bupropion hydroxylation (PPP), CYP2C8: amodiaquine deethylation (quercetin) CYP2C9: tolbutamide methylhydroxylation (sulfaphenazole), CYP2C19: (S)-mephenytoin 4’-hydroxylation (ticlopidine), CYP2D6: dextromethorphan O-demethylation (quinidine), and CYP3A: midazolam 1’-hydroxylation and testosterone 6β-hydroxylation (ketoconazole). […] The organic solvent content was maintained at less than 1% (v/v). NADPH was added to initiate the reaction which was then quenched by the addition of acetonitrile containing internal standard at specified times. Concentrations of the isoform-specific metabolites were quantified by LC-MS (Waters Xevo TQD triple quadrupole MS coupled to a Waters Acquity UPLC system) relative to calibration standards prepared in pre-quenched microsomal matrix.
Time dependent inhibition was assessed using an “IC50 shift” method based on a previous publication ([44]). […] A shift in the IC50 in the presence of NADPH (relative to the absence) was used as an indication of time dependent inhibition. Reference direct and time-dependent inhibitors were included in the assays.

NaV1.5 = NaV1.5 (Homo sapiens, UniProt Q14524); assay: Qube NaV1.5
Sequence of NaV1.5 (Q14524 whole entry): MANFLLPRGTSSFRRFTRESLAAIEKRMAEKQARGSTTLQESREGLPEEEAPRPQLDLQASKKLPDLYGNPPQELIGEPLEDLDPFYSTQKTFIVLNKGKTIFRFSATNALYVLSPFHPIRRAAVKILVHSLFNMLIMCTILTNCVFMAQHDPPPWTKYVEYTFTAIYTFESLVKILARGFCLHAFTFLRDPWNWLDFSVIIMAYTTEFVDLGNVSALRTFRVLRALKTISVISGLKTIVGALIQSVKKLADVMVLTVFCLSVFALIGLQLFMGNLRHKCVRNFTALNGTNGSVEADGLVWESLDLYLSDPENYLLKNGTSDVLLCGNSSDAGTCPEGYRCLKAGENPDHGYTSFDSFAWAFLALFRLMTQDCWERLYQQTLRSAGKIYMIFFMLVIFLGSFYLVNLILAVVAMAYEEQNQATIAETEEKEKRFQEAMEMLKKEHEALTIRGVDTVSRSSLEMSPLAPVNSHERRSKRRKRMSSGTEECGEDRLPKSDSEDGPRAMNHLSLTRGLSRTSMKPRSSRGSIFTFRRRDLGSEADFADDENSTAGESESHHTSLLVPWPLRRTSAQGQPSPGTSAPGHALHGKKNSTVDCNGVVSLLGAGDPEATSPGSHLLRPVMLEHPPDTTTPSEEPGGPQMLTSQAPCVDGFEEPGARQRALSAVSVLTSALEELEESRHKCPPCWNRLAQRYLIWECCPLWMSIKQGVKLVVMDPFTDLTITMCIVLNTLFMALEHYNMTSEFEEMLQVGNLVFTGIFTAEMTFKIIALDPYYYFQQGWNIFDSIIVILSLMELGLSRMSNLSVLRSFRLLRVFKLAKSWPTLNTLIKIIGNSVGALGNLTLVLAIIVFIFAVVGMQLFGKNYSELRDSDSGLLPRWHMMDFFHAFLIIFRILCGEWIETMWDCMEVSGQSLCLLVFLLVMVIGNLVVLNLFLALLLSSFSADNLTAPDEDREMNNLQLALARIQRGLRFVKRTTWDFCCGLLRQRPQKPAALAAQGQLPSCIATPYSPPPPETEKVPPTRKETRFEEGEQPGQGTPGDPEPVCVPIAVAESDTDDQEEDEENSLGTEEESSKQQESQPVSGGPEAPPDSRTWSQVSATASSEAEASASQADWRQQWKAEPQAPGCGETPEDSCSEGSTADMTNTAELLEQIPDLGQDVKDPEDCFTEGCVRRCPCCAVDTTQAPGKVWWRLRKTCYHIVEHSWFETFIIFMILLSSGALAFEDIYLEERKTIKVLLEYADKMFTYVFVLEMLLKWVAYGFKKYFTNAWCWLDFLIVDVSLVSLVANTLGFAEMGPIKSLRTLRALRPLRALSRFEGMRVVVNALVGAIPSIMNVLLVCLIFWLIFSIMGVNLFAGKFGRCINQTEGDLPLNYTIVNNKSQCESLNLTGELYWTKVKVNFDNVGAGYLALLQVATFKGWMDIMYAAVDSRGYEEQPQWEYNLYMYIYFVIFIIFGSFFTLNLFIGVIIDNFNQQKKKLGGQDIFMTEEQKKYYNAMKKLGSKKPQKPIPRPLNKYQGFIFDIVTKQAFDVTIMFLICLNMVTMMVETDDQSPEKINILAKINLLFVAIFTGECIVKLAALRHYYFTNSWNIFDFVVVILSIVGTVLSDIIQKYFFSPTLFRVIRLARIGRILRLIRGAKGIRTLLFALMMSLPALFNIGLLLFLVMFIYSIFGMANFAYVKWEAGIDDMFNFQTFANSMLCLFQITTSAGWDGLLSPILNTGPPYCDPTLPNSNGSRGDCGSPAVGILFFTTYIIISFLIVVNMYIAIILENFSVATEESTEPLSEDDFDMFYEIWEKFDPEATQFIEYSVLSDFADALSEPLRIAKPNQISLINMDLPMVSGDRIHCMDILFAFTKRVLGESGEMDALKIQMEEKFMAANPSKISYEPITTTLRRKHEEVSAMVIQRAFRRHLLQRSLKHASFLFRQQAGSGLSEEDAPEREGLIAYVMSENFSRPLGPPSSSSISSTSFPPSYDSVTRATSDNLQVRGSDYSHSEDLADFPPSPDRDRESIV

[5] = male, Sprague Dawley, plasma, Rat, oral 10 mg/kg
[6] = male, Sprague Dawley, rat, plasma, rats, single oral 50 mg/kg
[7] = male, Sprague Dawley, rat, plasma, rats, single oral 100 mg/kg
[8] = male, Sprague Dawley, rat, plasma, rats, single oral 300 mg/kg

In the case of Cc1[nH]c2nc(N)nc(C)c2c1-c1ccc(C#N)c2c1OCO2 [DNDI-6174], the “Microsome predicted in vivo CLplasma” value [1] is reported as 2.4 mL/min/kg, the microsomal CLint at 0.5 µM ([1]; liver microsomes, pH 7.4, 2 independent experiments, read-out: In vitro Microsome CLint) is reported as 10 ± 0.79 µL/min/mg and the Cmax (In vivo pharmacokinetics; [5]) is reported as 4210 ng/mL. It also gave a Tmax (In vivo pharmacokinetics; [5]) of 4 h, a bioavailability (In vivo pharmacokinetics; [5]) of 93% and a half-life (In vivo pharmacokinetics; male, Sprague Dawley, rat, plasma, iv, 3 mg/kg, Rat, intravenous 3.0 mg/kg, Monash University, read-out: Apparent t1/2 (converted)) of 7.9 h. It also gave an AUC(0-inf) (In vivo pharmacokinetics; male, Sprague Dawley, rat, plasma, iv, 3 mg/kg, Rat, intravenous 3.0 mg/kg, Monash University, read-out: Plasma AUC0-inf) of 23600 ng·h/mL, a clearance (In vivo pharmacokinetics; male, Sprague Dawley, rat, plasma, iv, 3 mg/kg, Rat, intravenous 3.0 mg/kg, Monash University, read-out: Plasma CL) of 2.12 mL/min/kg and a Vd (In vivo pharmacokinetics; male, Sprague Dawley, rat, plasma, iv, 3 mg/kg, Rat, intravenous 3.0 mg/kg, Monash University) of 1.4 L/kg. For the same compound, the half-life (In vivo pharmacokinetics; male, Sprague Dawley, rat, plasma, iv, 3 mg/kg, Rat, intravenous 3.0 mg/kg, WuXi AppTec, read-out: Apparent t1/2 (converted)) was 5.3 h, the AUC(0-inf) (In vivo pharmacokinetics; male, Sprague Dawley, rat, plasma, iv, 3 mg/kg, Rat, intravenous 3.0 mg/kg, WuXi AppTec, read-out: Plasma AUC0-inf) was 18500 ng·h/mL and the clearance (In vivo pharmacokinetics; male, Sprague Dawley, rat, plasma, iv, 3 mg/kg, Rat, intravenous 3.0 mg/kg, WuXi AppTec, read-out: Plasma CL) was 2.95 mL/min/kg. For the same compound, the Vd (In vivo pharmacokinetics; male, Sprague Dawley, rat, plasma, iv, 3 mg/kg, Rat, intravenous 3.0 mg/kg, WuXi AppTec) was 1.3 L/kg, the clearance (In vivo pharmacokinetics; male, Sprague Dawley, rat, plasma, iv, 3 mg/kg, Rat, read-out: Measured in vivo CLplasma) was 2.5 mL/min/kg and the half-life (In vivo pharmacokinetics; male, Sprague Dawley, rat, plasma, po, 10 mg/kg, Rat, oral 10 mg/kg, read-out: Apparent t1/2 (converted)) was 7 h. The AUC(0-inf) (In vivo pharmacokinetics; male, Sprague Dawley, rat, plasma, po, 10 mg/kg, Rat, oral 10 mg/kg, read-out: Plasma AUC0-∞) was 57700 ng·h/mL, the AUC(0-inf) (In vivo pharmacokinetics; male, Sprague Dawley, rat, plasma, po, 50 mg/kg, rats, single oral 50 mg/kg, read-out: AUC0-∞) was 292000 ng·h/mL and the half-life (In vivo pharmacokinetics; male, Sprague Dawley, rat, plasma, po, 50 mg/kg, rats, single oral 50 mg/kg, read-out: T1/2 (converted)) was 9.05 h. It also gave a Cmax (In vivo pharmacokinetics; [6]) of 14200 ng/mL, a Tmax (In vivo pharmacokinetics; [6]) of 5.7 h and a Cmax (In vivo pharmacokinetics; [7]) of 20900 ng/mL. The Tmax (In vivo pharmacokinetics; [7]) was 17 h, the Cmax (In vivo pharmacokinetics; [8]) was 30900 ng/mL and the Tmax (In vivo pharmacokinetics; [8]) was 27 h. The “parent compound excreted unchanged in urine” value (In vivo pharmacokinetics; rats, intravenous) was < 1%, the “AUC0-24 (reported in AUC0-∞ line)” value (In vivo pharmacokinetics; rats, single oral 100 mg/kg) was 430000 ng·h/mL and the “AUC0-24 (reported in AUC0-∞ line)” value (In vivo pharmacokinetics; rats, single oral 300 mg/kg) was 562000 ng·h/mL. For the same compound, the IC50 (hERG potassium channel) was 31.6 µM, the “field potential duration, spike amplitude and beat period, in words” value [2] was “no notable change in the field potential duration; also recorded: No significant change in the field potential” and the CC50 [3] was > 50 µM. For the same compound, the “mutagenic potential (AMES), in words” value [4] was “did not show intrinsic mutagenic potential”, the IC50 (CYP2C9; CYP2C9, read-out: Direct inhibition IC50) was 14.9 µM and the IC50 (CYP2C9; without NADPH preincubation, read-out: Time-dependent inhibition IC50) was 13.8 µM. The IC50 (NaV1.5) was > 50 µM.
